Data on three compounds can be found in PMC11984388, “A brain-accessible peptide modulates stroke inflammatory response and neurotoxicity by targeting BDNF-receptor TrkB-T1 specific interactome” (Theranostics, 2025).

The subject of the test is neurons of primary cortical cultures. In words: Neuronal viability (MTT) under NMDA excitotoxicity. It is filed as cell-based, rat. The procedure:
Cultures were prepared from cerebral cortex of 18-day-old Wistar rat embryos, both genders indistinctly included. Unless otherwise indicated, glial growth was inhibited after 7 days in vitro (DIVs), experimental treatments taking place after 12 DIVs. These cultures present a high percentage of neurons, combined with glial cells, mostly astrocytes. To induce excitotoxicity, cultures were incubated with NMDA (100 µM) and its co-agonist glycine (10 µM), herein denoted simply as NMDA, which induce a strong excitotoxic response in mature neurons but have no effect on astrocyte viability,[47]. When indicated, cultures were preincubated for 30 min with indicated concentrations of Tat-derived CPPs before NMDA treatment, peptides being kept in the medium along treatment. Total cell or neuronal viability assessment was established by the thiazolyl blue formazan (MTT) reduction assay. Further details are provided as Supplementary material. […]
skull for 10 min. Br ain injury encompas se s damage to vas cular endothelium, platelet activation, and subs equent microvascula r thrombotic occlus ion of the irradiate d region. The ar eas underneath this ste reotaxic position that result irradiate d ar e the prima ry motor cortex and the prima ry soma tos ens ory cortex (hindlimb and forelimb). Once completed surgery, the incision was sutured, and mice were allowed to recover.
For neuroprote ction experiments, a single dose (3 nmol/g) of peptides TMyc or TT1Ct (> 95% purity; GenScript), solubilized as 2.5 mM solutions in 0.9% NaC l, we retro-orbita lly injected 1 h af ter damage initiation. In order to improve their plas ma sta bility, thes e peptides ar e N- and C-ter modifie d by, respec tive ly, ace tyl and amide groups. Mi c e were not subje cted to other procedures before isc hemia and were naive to drug or peptide treatment. Animals were randomly allocated to the experimental groups and the resea rc hers doing the experiments were blind respec t to treatment. There was not a previous es tima tion of sa mple si z e and experiments were independently car r ied out as indicated. Twenty-four hours af ter damage induction, animals completed the beam walking test and were subs equently sa cri f i ced by cervical disloca tion to meas ure the infarc t volume, as indicated below. Be fore that, brains were se ctioned into se ri al 1-mm-thick coronal sl i ce s using a mouse brain matrix (Stoe lting, Wood Dale, IL, USA), and se ctions were completely sta ine d with 2% TTC at room temperature to visua liz e the cortical infarc ts . For immunohistochemis try, animals were deeply anes thetized 5 or 24 h af ter brain damage and intra cardially perfus ed with cold PBS and 4% paraformalde hyde in PBS as indicated below.
Primary cultures of rat cor tic al neurons to study in vitro excitotoxicity The diss ected cerebral cortices of Wis ta r rat embryos (E18), both genders included, were mechanic ally diss ociated in culture medium (Minimum Esse ntia l Me dium, ME M, Life Technologies) follow ed by se eding of the cell sus pens ion at a dens ity of 1.1x10^6 cells /ml, prepared in the sa m e medium supple me nted with 22.2 mM glucos e, 0.1 mM glutamax, 5% foetal bovine se rum (FBS), 5% donor horse se rum (HS), 100 U/ml penicillin and 100 µg/ml streptomycin. Be fore se eding, the plates were treated overnight at 37°C with 100 µg/ml poly-L-lysine and 4 µg/ml laminin. The cells were incubated at 37°C in an atmosphe re of 5% CO2 and 95% humidity. Generally, glial growth was inhibited af ter 7 days in vitro (DIV s) by adding 10 µM 5 cytos ine β-D-arabinofuranos ide (AraC) and experimental treatments took place af ter 12 DIVs. Excitotoxicity was induced by incubation with NM DA (100 µM) and glycine (10 µM) for the indicated times. As indicated, cultures were preincubated with Tat-derived CP P s before […]
Mi c e had to walk through a narrow beam (1 m × 1 cm × 1 cm) placed 50 cm above the tabletop, going from an aversive stimulus (60-W light bulb) to a black goal box with nes ting material. […]

[1] abbreviates: peptide 25 µM preincubated 30 min, NMDA 100 µM + glycine 10 µM for 2 h, relative to untreated cells (100%), mean ± SEM, n = 8 (Fig 1E).
Setting [2] is: peptide 25 µM preincubated 30 min, NMDA 100 µM + glycine 10 µM for 4 h, relative to untreated cells (100%), mean ± SEM, n = 8 (Fig 1E).

Residues, ends and D or L forms follow the SMILES beside them. *: point of attachment. Biotin = O=C1N[C@H]2[C@H](CS[C@H]2CCCCC(=O)*)N1

For the compound `CC[C@H](C)[C@H](NC(=O)[C@H](CCCCN)NC(=O)[C@H](Cc1c[nH]cn1)NC(=O)[C@H](Cc1ccccc1)NC(=O)[C@H](CC(C)C)NC(=O)[C@@H](NC(=O)[C@H](Cc1ccccc1)NC(=O)[C@H](CCCNC(=N)N)NC(=O)[C@H](CCCNC(=N)N)NC(=O)[C@H](CCCNC(=N)N)NC(=O)[C@H](CCC(N)=O)NC(=O)[C@H](CCCNC(=N)N)NC(=O)[C@H](CCCNC(=N)N)NC(=O)[C@H](CCCCN)NC(=O)[C@H](CCCCN)NC(=O)[C@H](CCCNC(=N)N)NC(=O)CNC(=O)[C@H](Cc1ccc(O)cc1)NC(=O)CCCC[C@@H]1SC[C@@H]2NC(=O)N[C@@H]21)C(C)C)C(=O)N1CCC[C@H]1C(=O)N[C@@H](CC(C)C)C(=O)N[C@@H](CC(=O)O)C(=O)NCC(N)=O` [Bio-sTT1Ct] (Biotin-YGRKKRRQRRRFVLFHKIPLDG-NH2), the “Relative neuronal viability (%)” value was 45% (2 h, 15 µM); 39% (4 h, 15 µM); 50 ± 5% under setting [1]; 32 ± 3% under setting [2].
For `CC[C@H](C)[C@H](NC(=O)[C@H](CC(C)C)NC(=O)[C@H](CCCCN)NC(=O)[C@H](CCC(N)=O)NC(=O)[C@H](CCC(=O)O)NC(=O)[C@H](CCC(=O)O)NC(=O)[C@H](C)NC(=O)[C@H](CCCNC(=N)N)NC(=O)[C@H](CCCNC(=N)N)NC(=O)[C@H](CCCNC(=N)N)NC(=O)[C@H](CCC(N)=O)NC(=O)[C@H](CCCNC(=N)N)NC(=O)[C@H](CCCNC(=N)N)NC(=O)[C@H](CCCCN)NC(=O)[C@H](CCCCN)NC(=O)[C@H](CCCNC(=N)N)NC(=O)CNC(=O)[C@H](Cc1ccc(O)cc1)NC(=O)CCCC[C@@H]1SC[C@@H]2NC(=O)N[C@@H]21)C(=O)N[C@@H](CO)C(=O)N[C@@H](CCC(=O)O)C(=O)N[C@@H](CCC(=O)O)C(=O)N[C@@H](CC(=O)O)C(=O)N[C@@H](CC(C)C)C(=O)N[C@@H](CC(C)C)C(=O)N[C@@H](CCCNC(=N)N)C(N)=O` [Bio-TMyc, reference compound] (Biotin-YGRKKRRQRRRAEEQKLISEEDLLR-NH2), the “Relative neuronal viability (%)” value under setting [1] worked out at 24 ± 3% and the “Relative neuronal viability (%)” value under setting [2] worked out at 16 ± 3%.
In the case of Ac-YGRKKRRQRRRPPFVLFHKIPLDG-NH2 [TT1Ct], the Neuronal viability reads like this: (CPPs 0: peptide and NMDA (100 µM) at the same time, viability after 4 h of excitotoxicity, relative to untreated cells (100%), mean, n = 4-8 (Fig S4)) 59%; (CPPs 30: peptide added 30' post-NMDA (100 µM), viability after 4 h of excitotoxicity, relative to untreated cells (100%), mean, n = 4-8 (Fig S4)) 31%; (CPPs 60: peptide added 60' post-NMDA (100 µM), viability after 4 h of excitotoxicity, relative to untreated cells (100%), mean, n = 4-8 (Fig S4)) 37%; (dose-response experiment (Fig 3B): peptide 15 µM preincubated 30 min, NMDA 2 h, mean ± SEM, n = 8) 46 ± 7%.
